Laboratory results taken from patent publication US20240245806A1, “TREATMENT OF NEURODEGENERATIVE DISEASE USING CSA- AND INDY-TYPE COMPOUNDS” (BROWN UNIVERSITY, priority 2021, published 2024).
“Also recorded” adds a separate entry of the source.

Columns and labels:
[1] = tested on: transplant patients; settings: all age groups above 65; cited from earlier work
[2] = tested on: zebrafish embryos and larvae; assay: Developmental exposure (2-3, 3-4 or 4-5 dpf) of zebrafish to modulators of calcineurin signaling, behavior imaged at 5 dpf; format: in vivo; settings: for early activity (first hour): imaged 5 dpf
Method: Zebrafish. Adult wild type zebrafish (Danio rerio) are maintained at Brown University as a genetically-diverse outbred strain in a mixed male and female population. Zebrafish embryos were collected and grown to larval stages as described previously. Thorn et al., Sci Rep 9, 13989 (2019). Embryos from 0-3 days post-fertilization (dpf) and larvae from 3-5 dpf were kept on a 12 hour light/12 hour dark cycle at 28.5° C. in 2 L culture trays with egg water, containing 60 mg/L sea salt (Instant Ocean) and 0.25 mg/L methylene blue in deionized water. Zebrafish embryos and larvae were randomly assigned to different experimental groups prior to experimental manipulation. The sex of embryos and larvae cannot be determined at such early stages because zebrafish use elusive polygenic factors for sex determination, and both males and females have juvenile ovaries between 2.5 and 4 weeks of development. Liew et al., Brief Funct Genomics 13(2), 172-187 (2014). Zebrafish larvae were imaged at 5 dpf when they are approximately 4 mm long, display a range of locomotor behaviors and consume nutrients available in the yolk sac. Clift et al., Zebrafish 11(5), 455-461 (2014).
Pharmacological treatments. Zebrafish embryos and larvae were treated with 10 μM CsA (cyclosporin A, Enzo Life Sciences), 1 μM FK506 (tacrolimus, Enzo Life Sciences), 1 μM rapamycin (Santa Cruz Biotechnology), 5 μM proINDY (Tocris Bioscience) or co-treatments of either 10 μM CsA+5 μM proINDY or 1 μM FK506+5 μM proINDY. […] Clift et al., Behav Brain Res, 282, 117-124 (2015). […] Robinson et al., J Appl Toxicol 37(12), 1438-1447 (2017). […] All administered compounds were diluted in egg water from 1000× stocks dissolved in dimethyl sulfoxide (DMSO). The corresponding DMSO concentration (1 μl DMSO/ml egg water) was used as a vehicle control. Embryos and larvae were treated during one of the following developmental stages: 2-3, 3-4, or 4-5 dpf. The embryos and larvae were treated in 10 cm Petri dishes for 24 hours, rinsed three times with egg water, and then transferred to new Petri dishes with egg water. Larvae that were treated from 4-5 dpf were rinsed and kept in egg water for 3 hours prior to imaging, typically from 10 am to 1 pm. All treatment groups were imaged at 5 dpf in egg water. For imaging, larvae were transferred to white 96-well ProxiPlates (PerkinElmer, 6006290) and were imaged for 3 hours, typically from 1-4 pm (FIG. 12).
Imaging of zebrafish larvae. Zebrafish larvae were imaged in a 384-well imaging system as described previously. Thorn et al., Sci Rep 9, 13989 (2019). Briefly, four 96-well ProxiPlates were placed on a glass stage inside a temperature-controlled cabinet, set at 28.5° C. The upper shelf of the cabinet holds a high-resolution camera (18-megapixel Canon EOS Rebel T6 with an EF-S 55-250 mm f/4.0-5.6 IS zoom lens), connected to a continuous power supply (Canon ACK-E10 AC Adapter) and controlled by a laptop computer. Images are acquired using Canon's Remote Capture software (EOS Utility, version 3), which is included with the camera. Every 6 seconds, the camera acquires a high-resolution image of larvae in the microplates (FIG. 12). Two small speakers (OfficeTec USB Computer Speakers Compact 2.0 System) are located speaker-side down on the glass stage. Speakers were connected by USB to the laptop computer and set to maximum volume (85 dBA).
Behavioral assay. Larval behaviors were imaged for 3 hours, as described previously. Thorn et al., Sci Rep 9, 13989 (2019). […] The PowerPoint started with a light background for 60 minutes without visual or acoustic stimuli, followed by 80 minutes with visual stimuli, 10 minutes without stimuli, and 30 minutes with acoustic stimuli (FIG. 12). Larvae were not exposed to visual stimuli and acoustic stimuli at the same time. The visual stimuli consisted of a series of lines that moved upwards or downwards in the microplates, in a horizontal plane. […]

[3] = tested on: zebrafish larvae; assay: Acute exposure of 5 dpf zebrafish larvae to modulators of calcineurin signaling, automated analysis of behavior; format: in vivo, Danio rerio; settings: vs DMSO
Method: Zebrafish larvae were treated at 5 dpf with various modulators of calcineurin signaling, starting 3 hours before imaging. The larvae were then imaged for a total of 3 hours using a behavioral assay with various visual and acoustic stimuli (FIG. 6). The behavioral assay started with a 1-hour period without stimuli, followed by 80 minutes with visual stimuli, 10 minutes without visual or acoustic stimuli, and 30 minutes with acoustic stimuli. Values of activity (% move) and position (% up) were averaged in individual larvae during 10-minute periods, for a total of 18 periods. These values were subsequently averaged between larvae in the same treatment group. We examined a total of 10 treatment groups. For clarity, only 3 treatment groups were graphed (FIG. 6), but all 10 treatment groups were analyzed in detail as shown in subsequent figures. […] The assay provides quantitative information on activity, visually-guided behaviors and acoustic startle responses.
To determine if larval zebrafish behavior is affected by modulation of calcineurin signaling, we imaged 5 day-old larvae in the following 10 treatment groups: 10 μM cyclosporine A (CsA), 1 μM tacrolimus (FK506), 5 or 10 μM proINDY, a combination of CsA+5 or 10 μM proINDY, or a combination of FK506+5 or 10 μM proINDY, DMSO as a vehicle control, and 1 μM rapamycin as a control for target specificity. Rapamycin and FK506 are both macrolide immunosuppressants with similar structures, however, rapamycin affects Target of Rapamycin (TOR) signaling instead of calcineurin signaling. Vellanki et al., Front Mol Biosci 7, 588913 (2020). The concentrations of CsA, FK506 and rapamycin were selected based on prior studies in zebrafish embryos and larvae. Clift et al., Behav Brain Res 282, 117-124 (2015). The two concentrations of proINDY, a membrane-permeable form of INDY (inhibitor of DYRK), were selected based on studies in cell lines and Xenopus embryos. Ogawa et al., Nat Commun 1, 86 (2010).
The research project has been conducted in accordance with local and federal guidelines for ethical and humane use of animals and has been reviewed and approved by the Brown University Institutional Animal Care and Use Committee. Zebrafish (Danio rerio) embryos were collected and grown to larval stages as previously described. Thorn et al., Sci Rep 9, 13989 (2019). Adult wild-type zebrafish are maintained at Brown University as a genetically-diverse outbred strain in a mixed male and female population. Zebrafish embryos from 0-3 days post-fertilization (dpf) and zebrafish larvae from 3-5 dpf were maintained at 28.5° C. in 2 L culture trays with egg water, containing 60 mg/L sea salt (Instant Ocean) and 0.25 mg/L methylene blue in deionized water. Embryos and larvae were kept on a 12 hour light/12 hour dark cycle and were randomly assigned to different experimental groups prior to experimental manipulation. The sex of embryos and larvae cannot be determined at such early stages because zebrafish use elusive polygenic factors for sex determination, and both males and females have juvenile ovaries between 2.5 and 4 weeks of development. Zebrafish larvae were imaged at 5 dpf when the larvae display a range of locomotor behaviors and consume nutrients available in the yolk sac. Larvae are approximately 4 mm long at the 5 dpf stage.
Cyclosporine (cyclosporin A, Enzo Life Sciences), FK506 (tacrolimus, Enzo Life Sciences), rapamycin (Santa Cruz Biotechnology) and proINDY (Tocris Bioscience) were diluted in egg water from 1000× stocks dissolved in dimethyl sulfoxide (DMSO). DMSO (1 μl/ml DMSO) was added to the single treatments and the corresponding DMSO concentration was used as a vehicle control for all solutions. Larvae were exposed at 5 dpf to treatment solutions or DMSO for a total of 6 hours. Larvae were first treated in a Petri dish for 2 hours, transferred with the treatment solution to white 96-well ProxiPlates (PerkinElmer, 6006290) for 1 hour, and then imaged in the treatment solution for 3 hours. […]

[4] = 5 dpf acute exposure, 10 μM CsA, 1 μM FK506, 1 μM rapamycin, proINDY

## C=CC[C@@H]1/C=C(\C)C[C@H](C)C[C@H](OC)[C@H]2O[C@@](O)(C(=O)C(=O)N3CCCC[C@H]3C(=O)O[C@H](/C(C)=C/[C@@H]3CC[C@@H](O)[C@H](OC)C3)[C@H](C)[C@@H](O)CC1=O)[C@H](C)C[C@@H]2OC [FK506, tacrolimus]
[1]
  development of Alzheimer's disease in treated transplant patients: rarely develops
[2]; all exposure groups, vs DMSO
  startle responses (20-second interval): decrease startle responses
[2]; exposure 2-3 dpf
  OMR Blue: decrease in OMR Blue
  OMR Green: decrease in OMR Green
  OMR RGB: decrease in OMR RGB
  behavioral profile: hyperactivity, low habituation, and low optomotor responses
  habituation to acoustic stimuli (1 second interval): reduced larval habituation
  startle responses (20-second interval): strongly reduced
  early activity (first hour): hyperactivity
[2]; exposure 3-4 dpf
  habituation to acoustic stimuli (1 second interval): reduced larval habituation
  late activity (period 15): substantial increases in activity
  startle responses (20-second interval): reduced
  early activity (first hour): hyperactivity
[2]; exposure 4-5 dpf
  OMR Fast Red: decrease in OMR Fast Red
  OMR Green: decrease in OMR Green
  excitability: increases in excitability
  habituation to acoustic stimuli (1 second interval): increased larval habituation
  late activity (period 15): substantial increases in activity
[3]; 5 dpf acute exposure
  optomotor response (OMR): decreased optomotor responses
[3]; [4]
  early activity (first hour of imaging): increased early larval activity; also recorded: significant increase in both early and late activity
  late activity (period 15): increased activity; also recorded: significant increase in both early and late activity
[3]; 5 dpf acute exposure, 10 μM CsA, 1 μM FK506, proINDY 5 or 10 μM
  activity: increased activity
[3]; 5 dpf acute
  excitability (acoustic stimuli at 1-second intervals): increase in excitability; also recorded: increased excitability
  habituation to acoustic stimuli at 1-second intervals: decreased habituation
[3]; 5 dpf acute, proINDY 5 μM
  optomotor response to red lines: decreased optomotor responses
